Values joined by “and” are separate entries in the source; they are usually repeats but may differ in a detail not shown here. Equal values may be shown once.
Assays:
Experiment in all cases: SelectScreen Profiling IC50
Format in all cases: biochemical
DNA-PK = DNA-PK (Homo sapiens, UniProt P78527); conditions: cell-free; ATP Km app; mean ± SEM, n=4-7; read-out: NU5455 IC50
Method: (§1) The in vitro kinase selectivity of NU5455 was determined using the SelectScreen Broad Assay Panel (Thermo Fisher Scientific) involving activity and binding assays (Supplemental Table 1). […] Class IA PI3Ks were measured using the p85α subunit.
(§2) PI3K Kinase NU5455 IC (nM) Fold selectivity
(§3) Supplemental Table 2. NU5455 potency and selectivity across the PI3K kinase family.
(§4) µM NU5455 for DNA-PK versus other PIKK and PI3K family members was assessed by SelectScreen Profiling (Life Technologies). The
(§5) ATP concentration was the Kmapp except for * where the ATP concentration was 10 μM (mean ± SEM, n=4-7).

ATM = ATM (Homo sapiens, UniProt Q13315)
Chain of ATM (Q13315 whole entry): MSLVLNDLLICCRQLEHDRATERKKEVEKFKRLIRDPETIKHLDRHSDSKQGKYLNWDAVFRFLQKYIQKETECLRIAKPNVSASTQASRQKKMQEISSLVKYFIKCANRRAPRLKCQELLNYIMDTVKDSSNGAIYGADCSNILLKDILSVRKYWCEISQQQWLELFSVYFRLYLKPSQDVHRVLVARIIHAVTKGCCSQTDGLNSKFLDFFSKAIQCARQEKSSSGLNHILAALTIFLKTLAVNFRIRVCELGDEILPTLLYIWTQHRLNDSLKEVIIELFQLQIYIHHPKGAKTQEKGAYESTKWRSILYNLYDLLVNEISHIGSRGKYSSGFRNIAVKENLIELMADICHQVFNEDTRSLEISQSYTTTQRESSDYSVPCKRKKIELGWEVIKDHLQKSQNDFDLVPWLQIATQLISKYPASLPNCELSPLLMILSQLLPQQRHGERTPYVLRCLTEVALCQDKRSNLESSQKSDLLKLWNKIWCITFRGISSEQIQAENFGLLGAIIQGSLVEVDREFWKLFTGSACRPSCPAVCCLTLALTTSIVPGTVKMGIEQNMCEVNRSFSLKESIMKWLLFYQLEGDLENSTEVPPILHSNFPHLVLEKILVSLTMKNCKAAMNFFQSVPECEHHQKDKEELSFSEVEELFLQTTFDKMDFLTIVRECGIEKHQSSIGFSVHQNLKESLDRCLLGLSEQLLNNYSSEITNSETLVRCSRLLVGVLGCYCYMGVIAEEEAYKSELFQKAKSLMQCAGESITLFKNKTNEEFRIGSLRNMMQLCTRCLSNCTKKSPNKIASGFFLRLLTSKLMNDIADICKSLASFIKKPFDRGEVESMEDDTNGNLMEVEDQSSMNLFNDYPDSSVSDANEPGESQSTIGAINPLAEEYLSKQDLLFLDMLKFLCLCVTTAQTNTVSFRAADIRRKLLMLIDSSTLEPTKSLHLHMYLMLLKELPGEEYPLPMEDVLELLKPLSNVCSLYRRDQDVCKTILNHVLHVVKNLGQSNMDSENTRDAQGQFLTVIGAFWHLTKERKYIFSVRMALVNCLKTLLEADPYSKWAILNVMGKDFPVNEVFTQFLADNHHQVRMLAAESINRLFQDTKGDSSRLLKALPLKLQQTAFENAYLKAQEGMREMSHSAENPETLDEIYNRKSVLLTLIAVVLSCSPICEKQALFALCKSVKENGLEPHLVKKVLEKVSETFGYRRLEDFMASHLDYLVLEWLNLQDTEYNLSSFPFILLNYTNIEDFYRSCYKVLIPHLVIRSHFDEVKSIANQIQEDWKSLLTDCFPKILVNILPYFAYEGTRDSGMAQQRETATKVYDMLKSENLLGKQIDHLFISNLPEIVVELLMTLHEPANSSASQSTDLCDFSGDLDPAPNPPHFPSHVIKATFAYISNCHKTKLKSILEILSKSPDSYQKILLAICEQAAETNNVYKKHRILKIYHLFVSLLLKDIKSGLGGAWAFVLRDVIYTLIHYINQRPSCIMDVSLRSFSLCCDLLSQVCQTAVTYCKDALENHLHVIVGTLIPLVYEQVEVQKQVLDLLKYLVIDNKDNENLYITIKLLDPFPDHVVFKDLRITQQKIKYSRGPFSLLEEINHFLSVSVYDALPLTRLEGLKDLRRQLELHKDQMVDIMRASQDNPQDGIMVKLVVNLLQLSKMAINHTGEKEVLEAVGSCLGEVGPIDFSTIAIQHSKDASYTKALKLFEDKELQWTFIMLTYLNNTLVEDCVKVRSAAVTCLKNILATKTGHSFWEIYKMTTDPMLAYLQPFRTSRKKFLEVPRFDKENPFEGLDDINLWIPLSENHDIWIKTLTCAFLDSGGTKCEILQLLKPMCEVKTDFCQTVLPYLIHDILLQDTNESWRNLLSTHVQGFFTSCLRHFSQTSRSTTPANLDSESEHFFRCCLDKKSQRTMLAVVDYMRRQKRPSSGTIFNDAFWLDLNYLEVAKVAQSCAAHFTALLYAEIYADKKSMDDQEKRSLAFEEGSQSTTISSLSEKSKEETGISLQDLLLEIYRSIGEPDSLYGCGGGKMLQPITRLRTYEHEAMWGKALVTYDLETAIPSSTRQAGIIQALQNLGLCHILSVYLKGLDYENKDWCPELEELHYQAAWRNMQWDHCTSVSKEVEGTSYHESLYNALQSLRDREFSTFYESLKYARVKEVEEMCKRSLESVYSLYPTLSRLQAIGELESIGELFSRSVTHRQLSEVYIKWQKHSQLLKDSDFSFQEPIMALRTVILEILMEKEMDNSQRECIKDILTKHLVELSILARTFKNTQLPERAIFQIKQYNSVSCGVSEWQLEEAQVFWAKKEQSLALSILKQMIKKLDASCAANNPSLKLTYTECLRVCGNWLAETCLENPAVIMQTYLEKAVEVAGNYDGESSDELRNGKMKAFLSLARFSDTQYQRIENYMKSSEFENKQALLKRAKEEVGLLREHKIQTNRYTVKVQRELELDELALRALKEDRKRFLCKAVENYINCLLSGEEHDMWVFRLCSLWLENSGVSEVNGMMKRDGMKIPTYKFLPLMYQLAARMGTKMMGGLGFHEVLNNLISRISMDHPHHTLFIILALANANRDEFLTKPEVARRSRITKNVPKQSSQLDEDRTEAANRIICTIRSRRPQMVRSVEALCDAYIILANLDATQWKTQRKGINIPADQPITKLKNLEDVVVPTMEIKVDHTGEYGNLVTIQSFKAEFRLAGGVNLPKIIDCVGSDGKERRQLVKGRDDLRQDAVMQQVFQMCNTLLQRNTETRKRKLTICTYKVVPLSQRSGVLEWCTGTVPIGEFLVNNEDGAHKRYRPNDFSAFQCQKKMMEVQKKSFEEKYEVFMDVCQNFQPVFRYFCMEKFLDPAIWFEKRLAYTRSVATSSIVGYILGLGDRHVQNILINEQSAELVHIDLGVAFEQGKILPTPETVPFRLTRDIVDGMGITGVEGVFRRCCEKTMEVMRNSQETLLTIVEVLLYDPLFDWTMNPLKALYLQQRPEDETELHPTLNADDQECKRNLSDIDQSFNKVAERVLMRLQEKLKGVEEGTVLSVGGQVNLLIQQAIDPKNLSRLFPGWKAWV
Method: as §1, §2, §3, §4, §5

mTOR = mTOR (Homo sapiens, UniProt P42345)
Method: as §1, §2, §3, §4, §5

PI3K-C2α = PI3K-C2α (Homo sapiens, UniProt O00443)
Method: as §1, §2, §3, §4, §5

p110γ = p110γ (Homo sapiens, UniProt P48736)
Method: as §1, §2, §3, §4, §5

p110α = p110α (Homo sapiens, UniProt P42336)
Method: as §1, §2, §3, §4, §5

PI3K-C2β = PI3K-C2β (Homo sapiens, UniProt O00750); conditions: ATP 10 μM
Chain of PI3K-C2β (O00750 whole entry): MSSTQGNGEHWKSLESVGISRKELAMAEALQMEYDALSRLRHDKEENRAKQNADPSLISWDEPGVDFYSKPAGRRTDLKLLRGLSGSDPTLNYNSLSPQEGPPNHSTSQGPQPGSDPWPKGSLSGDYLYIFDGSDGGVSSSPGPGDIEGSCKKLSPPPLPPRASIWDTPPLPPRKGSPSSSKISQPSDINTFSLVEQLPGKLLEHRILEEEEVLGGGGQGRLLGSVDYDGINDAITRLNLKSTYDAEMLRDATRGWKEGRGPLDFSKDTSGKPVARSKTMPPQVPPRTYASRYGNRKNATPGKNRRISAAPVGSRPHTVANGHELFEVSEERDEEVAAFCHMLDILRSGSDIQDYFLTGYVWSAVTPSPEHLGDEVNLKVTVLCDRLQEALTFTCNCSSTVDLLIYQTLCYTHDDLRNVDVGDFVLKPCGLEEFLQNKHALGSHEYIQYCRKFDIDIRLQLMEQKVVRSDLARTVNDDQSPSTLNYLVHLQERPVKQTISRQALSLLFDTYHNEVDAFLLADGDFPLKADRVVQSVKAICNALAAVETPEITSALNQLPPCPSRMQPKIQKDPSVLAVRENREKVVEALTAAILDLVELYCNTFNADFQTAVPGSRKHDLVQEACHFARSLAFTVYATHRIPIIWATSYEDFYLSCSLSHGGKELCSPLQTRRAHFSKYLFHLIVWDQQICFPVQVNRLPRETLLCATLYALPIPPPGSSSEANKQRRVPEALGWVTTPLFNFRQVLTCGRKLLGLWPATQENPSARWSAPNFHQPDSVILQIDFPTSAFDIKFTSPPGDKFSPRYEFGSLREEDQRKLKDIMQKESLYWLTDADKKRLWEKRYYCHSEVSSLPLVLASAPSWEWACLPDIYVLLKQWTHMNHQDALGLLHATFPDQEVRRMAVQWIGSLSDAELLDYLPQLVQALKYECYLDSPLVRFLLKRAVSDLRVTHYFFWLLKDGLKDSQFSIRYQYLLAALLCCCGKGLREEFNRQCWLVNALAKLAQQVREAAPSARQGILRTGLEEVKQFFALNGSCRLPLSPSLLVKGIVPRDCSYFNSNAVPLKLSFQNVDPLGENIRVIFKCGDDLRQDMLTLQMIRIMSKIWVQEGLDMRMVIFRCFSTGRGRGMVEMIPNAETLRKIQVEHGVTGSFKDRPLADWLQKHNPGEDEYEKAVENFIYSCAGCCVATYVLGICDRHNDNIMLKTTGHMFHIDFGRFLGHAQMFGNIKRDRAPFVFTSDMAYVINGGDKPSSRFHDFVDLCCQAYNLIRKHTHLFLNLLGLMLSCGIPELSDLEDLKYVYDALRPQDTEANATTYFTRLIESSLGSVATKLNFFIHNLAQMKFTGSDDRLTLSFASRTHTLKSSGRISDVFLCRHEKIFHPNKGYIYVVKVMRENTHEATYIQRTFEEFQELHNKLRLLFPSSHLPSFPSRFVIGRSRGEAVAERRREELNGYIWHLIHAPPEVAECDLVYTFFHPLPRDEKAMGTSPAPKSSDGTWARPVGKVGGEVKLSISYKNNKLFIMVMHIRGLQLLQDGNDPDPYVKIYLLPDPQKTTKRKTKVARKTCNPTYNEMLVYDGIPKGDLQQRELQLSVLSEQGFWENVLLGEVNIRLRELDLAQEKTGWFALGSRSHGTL
Method: as §1, §2, §3, §4, §5

ATR = ATR (Homo sapiens, UniProt Q13535)
Method: as §1, §2, §3, §4, §5

PI3K-C2γ = PI3K-C2γ (Homo sapiens, UniProt O75747)
Method: as §1, §2, §3, §4, §5

Vps34 = Vps34 (Homo sapiens, UniProt Q8NEB9)
Method: as §1, §2, §3, §4, §5

p110δ = p110δ (Homo sapiens, UniProt O00329)
Method: as §1, §2, §3, §4, §5

p110β = p110β (Homo sapiens, UniProt P42338)
Method: as §1, §2, §3, §4, §5

[1] = cell-free, ATP Km app, read-out: NU5455 IC50
[2] = cell-free, ATP Km app, mean ± SEM, read-out: NU5455 IC50
[3] = cell-free, ATP Km app, p85α subunit, mean ± SEM, read-out: NU5455 IC50

In the case of `CN(C(=O)CN1CCOCC1)c1ccc2sc3c(-c4cccc5c(=O)cc(N6CC7CCC(C6)O7)oc45)cccc3c2c1` [NU5455], the IC50 (DNA-PK) is reported as 0.0082 ± 0.002 µM, the IC50 (ATM; [1]) is reported as > 10 µM and the “Fold selectivity for DNA-PK” value (ATM; versus ATM) is reported as > 1220 fold and > 1200 fold. The IC50 (mTOR; [2]) was 4.06 ± 1.12 µM, the “Fold selectivity for DNA-PK” value (mTOR; versus mTOR) was 495 fold and the IC50 (PI3K-C2α; [1]) was > 10 µM. The “Fold selectivity for DNA-PK” value (PI3K-C2α; versus PI3K-C2α) was > 1220 fold, the IC50 (p110γ; [1]) was > 10 µM and the “Fold selectivity for DNA-PK” value (p110γ; versus p110γ) was > 1220 fold. The IC50 (p110α; [3]) was 1.87 ± 0.216 µM, the “Fold selectivity for DNA-PK” value (p110α; versus p110α (PI3Kα)) was 228 fold and the IC50 (PI3K-C2β; cell-free, mean ± SEM, read-out: NU5455 IC50) was 1.96 ± 0.424 µM. For the same compound, the “Fold selectivity for DNA-PK” value (PI3K-C2β; versus PI3K-C2β) was 239 fold, the IC50 (ATR; [1]) was > 10 µM and the “Fold selectivity for DNA-PK” value (ATR; versus ATR) was > 1220 fold and > 1200 fold. For the same compound, the IC50 (PI3K-C2γ; [1]) was > 10 µM, the “Fold selectivity for DNA-PK” value (PI3K-C2γ; versus PI3K-C2γ) was > 1220 fold and the IC50 (Vps34; [2]) was 0.071 ± 0.019 µM. For the same compound, the “Fold selectivity for DNA-PK” value (Vps34; versus Vps34) was 8.7 fold, the IC50 (p110δ; [3]) was 0.276 ± 0.022 µM and the “Fold selectivity for DNA-PK” value (p110δ; versus p110δ (PI3Kδ)) was 33.7 fold. The IC50 (p110β; [3]) was 9.32 ± 1.25 µM and the “Fold selectivity for DNA-PK” value (p110β; versus p110β) was 1137 fold.

From article PMC6934184, “Selective DNA-PKcs inhibition extends the therapeutic index of localized radiotherapy and chemotherapy” (The Journal of Clinical Investigation, 2019)
